This is an account of results in patent US8987170B2, “Succinimide compound” (Sumitomo Chemical Company, Limited, priority 2013, dated 2015).

Each structure is given as a SMILES string.

What all share (assay type): cell-based
For experiment [1], the system named is Pythium zingiberis. Put plainly: Antibacterial test on Pythium zingiberis (Test Example 1), mycelium growth on PDA medium. The following applies: 500 ppm in PDA medium. The method, then:
A predetermined amount of Compound (1) was dissolved in dimethyl sulfoxide, and the resulting solution was added to a potato dextrose agar medium (PDA medium) so as to have a final concentration of 500 ppm. Separately, an agar piece containing bacteria cut out from the bacterial flora peripheral part of Pythium zingiberis pre-cultured in an additive-free PDA medium was inoculated on the PDA medium containing Compound (1), and cultured at 12° C. or 27° C., and then the mycelium growth inhibition rate was measured by the following Expression 1: Mycelium growth inhibition rate(%)=100−(Diameter of bacterial flora in added medium)/(Diameter of bacterial flora in additive-free medium)×100 Expression 1

The subject of experiment [2] is Pythium zingiberis. Put plainly: Antibacterial test on Pythium zingiberis (Test Example 2), comparison with comparative compound. The following applies: 96 h, 500 ppm in PDA medium, cultured at 27° C. for 4 days, read-out: Mycelium growth inhibition rate (%). The method, then:
A predetermined amount of Compound (1) was dissolved in dimethyl sulfoxide, and the resulting solution was added to a potato dextrose agar medium (PDA medium) so as to have a final concentration of 500 ppm. Separately, an agar piece containing bacteria cut out from the bacterial flora peripheral part of Pythium zingiberis pre-cultured in an additive-free PDA medium was inoculated on the PDA medium containing Compound (1), and cultured at 27° C. for 4 days, and then the mycelium growth inhibition rate was measured by Expression 1. In addition, the test was conducted in the same manner, using N-[7-fluoro-3,4-dihydro-3-oxo-4-(2-propynyl)-2H-1,4-benzoxazin-6-yl]cyclohex-1-ene-1,2-dicarboxamide as a comparative example, in place of Compound (1).

In experiment [3] the test system is Pythium debaryanum. The experiment in a line: Antibacterial test on Pythium debaryanum, mycelium growth state on PDA medium. As to conditions: predetermined concentration in PDA medium; cultured at 27° C. As to the method:
A predetermined amount of Compound (1) was dissolved in dimethyl sulfoxide, and the resulting solution was added to a potato dextrose agar medium (PDA medium) so as to have a final concentration of predetermined concentration. Separately, an agar piece containing bacteria cut out from the bacterial flora peripheral part of Pythium debaryanum pre-cultured in an additive-free PDA medium was inoculated on the PDA medium containing Compound (1), and cultured at 27° C., and then the mycelium growth state was observed.

One may read the inhibition as how much of the control response was suppressed. Take `C#CCN1C(=O)COc2cc(F)c(N3C(=O)C4CC=CCC4C3=O)cc21` (stereo not shown) [Compound (1), N-[7-fluoro-3,4-dihydro-3-oxo-4-(2-propynyl)-2H-1,4-benzoxazin-6-yl]cyclohex-4-ene-1,2-dicarboxamide]: the inhibition at 500 ppm in experiment [1] (24 h, culture temperature 27° C., observation Day 1, read-out: Mycelium growth inhibition rate (%)) amounted to 53%; in experiment [1] (96 h, culture temperature 12° C., observation Day 4, read-out: Mycelium growth inhibition rate (%)) it was 100%; in experiment [2] it was 50%. Further, in experiment [3], the “effect of controlling Pythium debaryanum (mycelium growth state observed)” value was “has an effect of controlling Pythium debaryanum”.
